Experiment: Pullulan film gliding performance, slanted plane test (smallest gliding angle of film-coated glass plates)
Assay type: physicochemical
Details: smaller angle = better
Description: […] The mixture is heated to 70° C. under stirring for complete solubilisation and then the stirring is reduced for defoaming. The solution then is used to cast on glass plates of 4 mm thickness to form pullulan films of about 100 μm thickness after drying at room conditions. The pullulan film gliding performance is evaluated by a test on a slanted plan, a method commonly used by gelatine producers. The method determines the smallest angle of inclination of glass plate to provoke the gliding of a film coated glass plate over another one with films face to face. Consequently, the smaller the gliding angle, the better the film gliding performance.

[1] = surfactant 500 ppm/pullulan, cast pullulan film about 100 μm with kappa-carrageenan and potassium acetate
[2] = surfactant 1000 ppm, cast pullulan film about 100 μm

Pullulan gliding performance (°) [1] [°]	Pullulan gliding performance (°) [2] [°]	Pullulan gliding performance (°) (surfactant 5000 ppm, cast pullulan film about 100 μm)	Compound
10	8		Sorbitan laurate
12	12		Polysorbate 20
9	7		Sorbitan oleate
9	5	6	CCCCCCCCCCCCOS(=O)(=O)[O-].[Na+] [SLS, sodium lauryl sulphate]
10	9		Polysorbate 80

Reference: patent US7267718B2, “Pullulan film compositions” (Warner-Lambert Company, LLC, priority 2000, dated 2007)
